Source: patent US4672036A, “Pure cultures of Kibdelsporangium aridum Shearer gen. nov., sp. nov. ATCC 39323 and mutants thereof” (SmithKline Beckman Corporation, priority 1985, dated 1987)
Values after ≈ are worked out from the molar mass of the structure shown. Values joined by “and” are separate entries in the source; they are usually repeats but may differ in a detail not shown here. Equal values may be shown once. Read-outs that look alike come from different tables or passages of the source. Where a SMILES comes first, the peptide text is derived from it. Bridges are numbered along the chain shown (N, C = ends). [ ]: non-standard residue; d: D form. The star is where a group is joined. Ileψ(thiazoline)Cys = CC[C@H](C)[C@H](N)C1=N[C@H](C(=O)*)CS1; dOrn = NCCC[C@@H](N)C(=O)O

Columns and labels:
[1] = tested on: rumen in vitro model; experiment: rumen in vitro model (growth promotant activity); parameters: species or system steer
Protocol: The protocol for the rumen in vitro model is analogous to the protocol for the swine in vitro model with the following modifications:
(1) A 400 kg steer is surgically prepared with a rumen cannula.
(2) The animal is fed one time a day with the following ration:
(3) Manipulation of VFA production is described as the production ratio of propionate as a percentage of total VFA produced.
(4) Sampling of the material, via the cannula, is at 120 minutes post feeding.

[2] = tested on: B. fragilis SK & F 3060; type: cell-based, Bacteroides fragilis; settings: Table D, Anaerobes
[3] = tested on: E. coli 12140 (SK & F 809); type: cell-based
[4] = tested on: rumen in vitro model; experiment: rumen in vitro model (growth promotant activity); parameters: species or system steer; remark: listed apart in the source
[5] = tested on: Bacteroides fragilis ATCC 25285; type: cell-based; settings: Table D, Anaerobes
[6] = tested on: B. fragilis H145; type: cell-based, Bacteroides fragilis; settings: Table D, Anaerobes
[7] = tested on: Proteus morgani SK & F 179; type: cell-based; settings: Table A
[8] = tested on: Listeria monocytogenes SK & F 2255; type: cell-based; settings: Table A
[9] = tested on: Clostridium perfringens MCP-1; settings: Table D, Anaerobes
[10] = solubility; type: physicochemical
[11] = tested on: Swine in vitro model; experiment: swine in vitro model (growth promotant activity)
[12] = tested on: Salmonella gallinarum BC595
[13] = tested on: B. thetaiotamicron SK & F 3089; type: cell-based; settings: Table D, Anaerobes
[14] = tested on: Providencia SK & F 276; type: cell-based; settings: Table A
[15] = tested on: Serratia marcesens ATCC 13880; type: cell-based; settings: Table A
[16] = tested on: Pseudomonas aeruginosa HH63; type: cell-based; settings: Table A
[17] = tested on: C. perfringens MCP-2; settings: Table D, Anaerobes
[18] = tested on: Staph. aureus SK & F 2613; type: cell-based; settings: Table B, Methicillin Sensitive
[19] = tested on: Enterobacter cloacae HH31254; type: cell-based; settings: Table A
[20] = tested on: Fusobacterium nucleatum ATCC 25586; type: cell-based; settings: Table D, Anaerobes
[21] = tested on: Strep. faecilis HH34358; type: cell-based; settings: Table A
[22] = tested on: Proteus mirabilis SK & F 444; type: cell-based; settings: Table A
[23] = tested on: B. loeochii SK & F 3087; type: cell-based; settings: Table D, Anaerobes
[24] = tested on: Kleb. pneumoniae 4200 (SK & F 798); type: cell-based; settings: Table A
[25] = tested on: Staph. aureus SK & F 674-P6 Mutant; experiment: microbe, parasite or virus in culture; type: cell-based; settings: Table E
[26] = tested on: Staph. epidermidis SK & F 2265; type: cell-based; settings: Table E
[27] = tested on: Staph. epidermidis SK & F 2683; type: cell-based; settings: Table E
[28] = tested on: Staph. aureus 209P-Mutant; experiment: microbe, parasite or virus in culture; type: cell-based; settings: Table E
[29] = tested on: Strep. faecalis SK & F 657; type: cell-based; settings: Table E
[30] = tested on: K. aridum; experiment: susceptibility of K. aridum to antibiotics, disk diffusion method; type: cell-based, Kibdelosporangium aridum
Protocol: Susceptibility of K. aridum to antibiotics was examined by placing BBL susceptibility disks on nutrient agar plates seeded with K. aridum as an overlay. Diameters of the zones of inhibition were measured after incubation for one week at 28° C.
Chlortetracycline ([…]) produced 18 mm zones of inhibition; tetracycline (5 μg) 11-12 mm zones; rifampin (5 μg) 11-15 mm zones; novobiocin (5 μg) 27-28 mm zones. All zones of inhibition contained at least a few resistant colonies.

[31] = H2O, methanol, dimethylsulfoxide, dimethylformamide
[32] = ethanol, acetonitrile, acetone, diethylether, aliphatic hydrocarbons

CN[C@H]1C(=O)N[C@H]2C(=O)N[C@H](C(=O)N[C@H]3C(=O)N[C@H]4C(=O)N[C@H](C(=O)N[C@H](C(=O)O)c5cc(O)cc(O[C@H]6O[C@H](CO)[C@@H](O)[C@H](O)[C@@H]6O)c5-c5cc4ccc5O)[C@H](O)c4cc(Cl)c(c(Cl)c4)Oc4cc3cc(c4O[C@@H]3O[C@H](C(=O)O)[C@@H](O)[C@H](O)[C@H]3NC(=O)CCCCCCCCC(C)C)Oc3ccc(cc3Cl)[C@H]2O)c2cc(cc(O)c2Cl)Oc2cc1ccc2O
Propionate % [1]: 120 % Control | VFA (total of volatile fatty acids) [1]: 111 % Control | MIC [2]: 16 µg/mL (≈ 8.8 µM) | MIC ([3]; Table A): > 100 µg/mL | LYS (lysine) [4]: 110 % Control and 103 % Control | MIC [5]: 32 µg/mL (≈ 17.6 µM) | MIC [6]: 8 µg/mL (≈ 4.4 µM) | MIC [7]: > 100 µg/mL | MIC [8]: ~ 0.4 μg/ml | MIC [9]: ≤ 0.016 µg/mL | solubility [10, 31]: soluble | solubility [10, 32]: insoluble | GLU (glucose) [11]: 191 % Control and 188 % Control and 96 % Control | MIC ([12]; Table A): > 100 µg/mL | MIC [13]: 32 µg/mL (≈ 17.6 µM) | MIC [14]: > 100 µg/mL | MIC [15]: > 100 µg/mL | MIC [16]: > 100 µg/mL | MIC [17]: ≤ 0.016 µg/mL | MIC [18]: 1.6 µg/mL (≈ 0.88 µM) | MIC [19]: > 100 µg/mL | MIC [20]: 32 µg/mL (≈ 17.6 µM) | MIC [21]: 0.8 µg/mL (≈ 0.44 µM) | MIC [22]: > 100 µg/mL | MIC [23]: 4 µg/mL (≈ 2.2 µM) | MIC [24]: > 100 µg/mL

CCCCCCCCCC(=O)N[C@H]1[C@H](Oc2c3cc4cc2Oc2c(Cl)cc(cc2Cl)[C@@H](O)[C@@H]2NC(=O)[C@H](NC(=O)[C@@H]4NC(=O)[C@H]4NC(=O)[C@H](NC(=O)[C@H](NC)c5ccc(O)c(c5)Oc5cc(O)c(Cl)c4c5)[C@H](O)c4ccc(c(Cl)c4)O3)c3ccc(O)c(c3)-c3c(O[C@H]4O[C@H](CO)[C@@H](O)[C@H](O)[C@@H]4O)cc(O)cc3[C@@H](C(=O)O)NC2=O)O[C@H](C(=O)O)[C@@H](O)[C@@H]1O [AAD 216A]
VFA (total of volatile fatty acids) [1]: 111 % Control and 94 % Control | MIC [2]: 32 µg/mL (≈ 17.9 µM) | MIC ([3]; Table A): > 100 µg/mL | MIC ([3]; Table E): > 100 µg/mL | LYS (lysine) [4]: 114 % Control | MIC [5]: 32 µg/mL (≈ 17.9 µM) | MIC [25]: ~ 100 μg/ml | MIC [7]: > 100 µg/mL | solubility [10, 31]: soluble | solubility [10, 32]: insoluble | GLU (glucose) [11]: 187 % Control and 191 % Control | LYS (lysine) [11]: 63 % Control and 50 % Control and 94 % Control | MIC ([12]; Table A): > 100 µg/mL | MIC ([12]; Table E): > 100 µg/mL | MIC [13]: > 32 µg/mL | MIC [14]: > 100 µg/mL | MIC [26]: 100 µg/mL (≈ 55.9 µM) | MIC [15]: > 100 µg/mL | MIC [27]: 100 µg/mL (≈ 55.9 µM) | MIC [16]: > 100 µg/mL | MIC [19]: > 100 µg/mL | MIC [20]: 32 µg/mL (≈ 17.9 µM) | MIC [28]: 100 µg/mL (≈ 55.9 µM) | MIC [29]: 0.8 µg/mL (≈ 0.447 µM) | MIC [22]: > 100 µg/mL | MIC [24]: > 100 µg/mL

CN(C)[C@@H]1C(O)=C(C(N)=O)C(=O)[C@@]2(O)C(O)=C3C(=O)c4c(O)ccc(Cl)c4[C@@](C)(O)[C@H]3C[C@@H]12 [Chlortetracycline]
zone of inhibition at 5 µg/disc ([30]; Kibdelosporangium aridum, 168 h): 18 mm

CC[C@@]1([C@H]2O[C@H]([C@H]3O[C@@](O)(CO)[C@H](C)C[C@@H]3C)C[C@H]2C)CC[C@H]([C@@]2(C)CC[C@]3(C[C@H](O)[C@@H](C)[C@@H]([C@H](C)[C@H](OC)[C@@H](C)C(=O)O)O3)O2)O1 [Monensin Sodium]
Propionate % [1]: 156 % Control and 149 % Control and 119 % Control | VFA (total of volatile fatty acids) [1]: 104 % Control and 94 % Control | LYS (lysine) [4]: 147 % Control and 141 % Control

CC[C@H](C)[C@H](N)C1=N[C@H](C(=O)N[C@@H](CC(C)C)C(=O)N[C@H](CCC(=O)O)C(=O)N[C@H](C(=O)N[C@H]2CCCCNC(=O)[C@H](CC(N)=O)NC(=O)[C@@H](CC(=O)O)NC(=O)[C@H](Cc3cnc[nH]3)NC(=O)[C@@H](Cc3ccccc3)NC(=O)[C@H]([C@@H](C)CC)NC(=O)[C@@H](CCCN)NC2=O)[C@@H](C)CC)CS1 [bacitracin] ({Ileψ(thiazoline)Cys}-L[dE]IK[dOrn]I[dF]H[dD]N; lactam 4-C)
susceptibility of K. aridum ([30]; disk 2 units): resistant

CC(=O)OCC1=C(C(=O)O)N2C(=O)[C@@H](NC(=O)Cc3cccs3)[C@H]2SC1 [cephalothin]
susceptibility of K. aridum ([30]; disk 30 μg): resistant

CCC[C@@H]1C[C@@H](C(=O)N[C@@H]([C@H]2O[C@H](SC)[C@H](O)[C@@H](O)[C@H]2O)[C@H](C)Cl)N(C)C1 [clindamycin]
susceptibility of K. aridum ([30]; disk 2 μg): resistant

CCC[C@@H]1C[C@@H](C(=O)N[C@@H]([C@H]2O[C@H](SC)[C@H](O)[C@@H](O)[C@H]2O)[C@@H](C)O)N(C)C1 [lincomycin]
susceptibility of K. aridum ([30]; disk 2 μg): resistant
